A short description of data set [1]: Plasma stability assay, rat plasma. In kind it is in vitro ADME. Particulars: 10 μM, 37° C. As for the experimental part: Plasma stability determination of the test compounds in rat, dog, cynomolgus monkey and human plasma is performed using HPLC-MS. For rat, incubations are carried out in 96-well polypropylene plates in 5 aliquots of 70 μL each (one for each time point). […] Five time points are analyzed (0, 15, 120, 480 and 1440 min). For dog, monkey and human, test compounds (2 μM, final solvent concentration 1%) were also incubated at 37° C. and analyzed at five time points (0, 10, 30, 60 and 120 min). All incubations are performed in duplicates. The samples are analyzed by HPLC-MS. The percentage of parent compound remaining after incubation in plasma is determined.

Where [2] appears, read: heating temp. 40 °C, obs. temp. 40 °C.
Setting [3] is: heating temp. 60 °C, obs. temp. 25 °C.

From patent US10533015B1, “Opioid receptor antagonist prodrugs” (Nirsum Laboratories, Inc., priority 2019, dated 2020) come the findings set out here.

Like-named read-outs stand apart in the source and are kept apart here.

`C=C1CC[C@@]2(O)C3Cc4ccc(OC(=O)OCCCCCCCCCC)c5c4[C@@]2(CCN3CC2CC2)[C@H]1O5` [Compound 18, (4aS,7aS,12bS)-3-(cyclopropylmethyl)-4a-hydroxy-7-methylene-2,3,4,4a,5,6,7,7a-octahydro-1H-4,12-methanobenzofuro[3,2-e]isoquinolin-9-yl decyl carbonate]: the “% remaining at time point” value in data set [1] (0 min) turned out to be 100%; in data set [1] (15 min), 0.6%; in data set [1] (120 min) it was 0.3%; in data set [1] (480 min), 0.1%; in data set [1] (1440 min), 0%. For the same compound, the “Approximate Solubility (mg/mL) in Excipient: Cottonseed oil” value (“Approximate Solubility … Cottonseed oil” below) runs as follows: under setting [2], above 403 mg/mL; under setting [3], above 400 mg/mL. Moreover, the “Approximate Solubility (mg/mL) in Excipient: Ethanol” value under setting [2] is above 209 mg/mL. The “Approximate Solubility (mg/mL) in Excipient: Sesame oil” value (from here on “Approximate Solubility … Sesame oil”) is, setting by setting: under setting [2], above 403 mg/mL; under setting [3], above 402 mg/mL. Moreover, the “Equilibrium solubility (mg/mL) Water” value under setting [2] is below 0.0002 mg/mL.

For the compound `CCCCCCCCCCCCCC(=O)Oc1ccc2c3c1O[C@H]1C(=O)CC[C@@]4(O)C(C2)N(CC2CC2)CC[C@]314` [Compound 57, (4aS,7aR,12bS)-3-(cyclopropylmethyl)-4a-hydroxy-7-oxo-2,3,4,4a,5,6,7,7a-octahydro-1H-4,12-methanobenzofuro[3,2-e]isoquinolin-9-yl tetradecanoate], the “% remaining at time point” value was 100% in data set [1] (0 min); 10.5% in data set [1] (15 min); 3.2% in data set [1] (120 min); 1.2% in data set [1] (480 min); 0% in data set [1] (1440 min). Further, the “Approximate Solubility … Cottonseed oil” value under setting [3] was above 423.7 mg/mL. The “Approximate Solubility … Sesame oil” value under setting [3] is on record as above 417.3 mg/mL. Under setting [2], the “Equilibrium solubility (mg/mL) Water” value is listed as below 0.001 mg/mL.

For `CCCCC/C=C\C/C=C\CCCCCCCC(=O)Oc1ccc2c3c1O[C@H]1C(=O)CC[C@@]4(O)C(C2)N(CC2CC2)CC[C@]314` [Compound 53, (4aS,7aR,12bS)-3-(cyclopropylmethyl)-4a-hydroxy-7-oxo-2,3,4,4a,5,6,7,7a-octahydro-1H-4,12-methanobenzofuro[3,2-e]isoquinolin-9-yl (9Z,12Z)-octadeca-9,12-di.enoate], the “% remaining at time point” value in data set [1] (0 min) is recorded as 100%; in data set [1] (15 min) it was 46.85%; in data set [1] (120 min), 19.6%; in data set [1] (480 min), 7.3%; in data set [1] (1440 min), 1.9%. Moreover, the “Approximate Solubility … Cottonseed oil” value under setting [3] is reported as above 408.5 mg/mL. Further, the “Approximate Solubility … Sesame oil” value by setting is: under setting [3], above 401.9 mg/mL; (heating temp. 60 °C, obs. temp. 40 °C) above 406.3 mg/mL.

As for `CCCCCCCCCCCCCCCCCCCCCC(=O)Oc1ccc2c3c1O[C@H]1C(=O)CC[C@@]4(O)C(C2)N(CC2CC2)CC[C@]314` [Compound 51, (4aS,7aR,12bS)-3-(cyclopropylmethyl)-4a-hydroxy-7-oxo-2,3,4,4a,5,6,7,7a-octahydro-1H-4,12-methanobenzofuro[3,2-e]isoquinolin-9-yl docosanoate], the “% remaining at time point” value in data set [1] (0 min) stood at 100%; in data set [1] (15 min), 107.4%; in data set [1] (120 min), 105.3%; in data set [1] (480 min), 88.2%; in data set [1] (1440 min), 92.7%. Further, the “Approximate Solubility … Cottonseed oil” value under setting [3] is listed as below 50 mg/mL. In addition, the “Approximate Solubility … Sesame oil” value under setting [3] is on record as below 46 mg/mL. For the same compound, the “Equilibrium solubility (mg/mL) Water” value under setting [2] was below 0.001 mg/mL.

In the case of `CCCCCCCCCCCCCCC(=O)Oc1ccc2c3c1O[C@H]1C(=O)CC[C@@]4(O)C(C2)N(CC2CC2)CC[C@]314` [Compound 58, (4aS,7aR,12bS)-3-(cyclopropylmethyl)-4a-hydroxy-7-oxo-2,3,4,4a,5,6,7,7a-octahydro-1H-4,12-methanobenzofuro[3,2-e]-isoquinolin-9-yl pentadecanoate], the “% remaining at time point” value in data set [1] (0 min) is 100%; in data set [1] (15 min), 37%; in data set [1] (120 min), 20%; in data set [1] (480 min), 2.9%; in data set [1] (1440 min), 1.8%. Moreover, under setting [3], the “Approximate Solubility … Cottonseed oil” value lay in the range of 101.8 to 203.6 mg/mL. Moreover, the “Approximate Solubility … Sesame oil” value under setting [3] lay in the range of 99.4 to 198.8 mg/mL.

As for `C=C1CC[C@@]2(O)C3Cc4ccc(OC(=O)OCCCCCCCCCCCCC)c5c4[C@@]2(CCN3CC2CC2)[C@H]1O5` [Compound 30, (4aS,7aS,12bS)-3-(cyclopropylmethyl)-4a-hydroxy-7-methylene-2,3,4,4a,5,6,7,7a-octahydro-1H-4,12-methanobenzofuro[3,2-e]isoquinolin-9-yl tridecyl carbonate], the “% remaining at time point” value worked out at 100% in data set [1] (0 min); 65.7% in data set [1] (15 min); 40.3% in data set [1] (120 min); 30.5% in data set [1] (480 min); 22.2% in data set [1] (1440 min). Under setting [3], the “Approximate Solubility … Cottonseed oil” value is 252.5 to 404.06 mg/mL. In addition, the “Approximate Solubility … Sesame oil” value under setting [3] fell in the range of 252.55 to 398.6 mg/mL. For the same compound, under setting [2], the “Equilibrium solubility (mg/mL) Water” value is on record as below 0.001 mg/mL.

`C=C1CC[C@@]2(O)C3Cc4ccc(OC(=O)CCCCCCC/C=C\CCCCCCCC)c5c4[C@@]2(CCN3CC2CC2)[C@H]1O5` [Compound 36, (4aS,7aS,12bS)-3-(cyclopropylmethyl)-4a-hydroxy-7-methylene-2,3,4,4a,5,6,7,7a-octahydro-1H-4,12-methanobenzofuro[3,2-e]isoquinolin-9-yl oleate]: the “% remaining at time point” value came to 100% in data set [1] (0 min); 74.4% in data set [1] (15 min); 66.3% in data set [1] (120 min); 39.8% in data set [1] (480 min); 19.1% in data set [1] (1440 min). Moreover, the “Approximate Solubility (mg/mL) in Excipient: Castor oil” value (Castor oil, heating temp. 40 °C, obs. temp. 40 °C) was above 217 mg/mL. Moreover, the “Approximate Solubility … Cottonseed oil” value by setting is: under setting [2], above 418.7 mg/mL; under setting [3], above 407 mg/mL. Under setting [2], the “Approximate Solubility (mg/mL) in Excipient: Ethanol” value was 20 to 30 mg/mL. For the same compound, the “Approximate Solubility … Sesame oil” value reads like this: under setting [2], above 411.6 mg/mL; under setting [3], above 408 mg/mL.

As to `CCCCCCCCCCCCCCCCCC(=O)Oc1ccc2c3c1O[C@H]1C(=O)CC[C@@]4(O)C(C2)N(CC2CC2)CC[C@]314` [Compound 54, (4aS,7aR,12bS)-3-(cyclopropylmethyl)-4a-hydroxy-7-oxo-2,3,4,4a,5,6,7,7a-octahydro-1H-4,12-methanobenzofuro[3,2-e]isoquinolin-9-yl stearate], the “% remaining at time point” value was 100% in data set [1] (0 min); 98.8% in data set [1] (15 min); 62.4% in data set [1] (120 min); 45.6% in data set [1] (480 min); 19.4% in data set [1] (1440 min). For the same compound, the “Approximate Solubility … Cottonseed oil” value under setting [3] is below 51 mg/mL. In addition, the “Approximate Solubility … Sesame oil” value under setting [3] is given as below 50 mg/mL. The “Equilibrium solubility (mg/mL) Water” value under setting [2] is recorded as below 0.001 mg/mL.
